Reference: patent US20250197641A1, “OPTICAL ABSORBENT” (priority 2023, published 2025)

How the values were obtained:
Type in all cases: physicochemical
[1] = Absorption maximum measurement; conditions: chloroform, about 10^-5 M
Description: The maximum absorption was evaluated by a conventional method. Specifically, the sample was dissolved in chloroform solvent at a concentration of about 10^−5 M and then evaluated using measuring equipment (Agilent, Varian Cary 4000).

[2] = Pyrolysis temperature (Td 5%) analysis by TGA; conditions: 25-800° C., 10° C./min, N2
Description: The Td 5% is a value obtained through TGA (Thermogravimetric Analysis) analysis. It is the value (Td 5%) at a weight loss of 5% confirmed under the conditions of a temperature range of 25° C. to 800° C., a temperature increase rate of 10° C./min, and a nitrogen (N2) atmosphere of 60 cm^3/min.
Thermogravimetric Analysis (TGA) of the chemical compound was performed by using Scinco's TGA N-1000 equipment. The analysis was performed by using approximately 3 mg of sample (chemical compound) and the analysis was conducted under conditions of a temperature range of 25° C. to 800° C., a temperature increase rate of 10° C./min, and nitrogen (N2) atmosphere of 60 cm^3/min. The value at […] (Td 5%) was used as the Td decomposition temperature.

[3] = Solubility of the absorbent in methylene chloride; conditions: room temperature (about 25° C.)
Description: The solubility of the absorbent was evaluated. Solubility was determined based on the following criteria by evaluating the solubility of the absorbent in the solvent (MC, Methylene Chloride) at room temperature (about 25° C.).

[4] = Transmittance of absorption membrane before and after reliability evaluation (Test Example 1)
Description: The transmittance spectrum was measured using a spectrophotometer (Manufacturer: Perkinelmer, Product Name: Lambda 750 Spectrophotometer) on a specimen obtained by cutting the measurement object (e.g., an absorption membrane) so that the width and height were 10 mm and 10 mm, respectively. The transmittance spectrum was measured for each wavelength according to the equipment manual. The specimen was placed on a straight line between a measuring beam of the spectrophotometer and a detector and the transmittance spectrum was confirmed by setting the incident angle of the measuring beam to 0°. The incident angle of 0° is a direction substantially parallel to the surface normal direction of the specimen. The average transmittance within a certain wavelength range in the transmittance spectrum is the result of measuring the transmittance at each wavelength while increasing the wavelength by 1 nm starting from the shortest wavelength in the wavelength range, and then calculating the arithmetic average of the measured transmittances. The maximum transmittance is the maximum transmittance among the transmittances measured while increasing the wavelength by 1 nm and the minimum transmittance is the minimum transmittance among the transmittances measured while increasing the wavelength by 1 nm. For example, the average transmittance within the wavelength range of 350 nm to 360 nm is the arithmetic mean of the transmittance measured at the wavelength of 350 nm, 351 nm, 352 nm, 353 nm, 354 nm, 355 nm, 356 nm, 357 nm, 358 nm, 359 nm, and 360 nm. The maximum transmittance within the wavelength range of 350 nm to 360 nm is the highest transmittance measured at wavelengths of 350 nm, 351 nm, 352 nm, 353 nm, 354 nm, 355 nm, 356 nm, 357 nm, 358 nm, 359 nm and 360 nm and the minimum transmittance within the wavelength range of 350 nm to 360 nm is the lowest transmittance among the transmittances measured at wavelengths of 350 nm, 351 nm, 352 nm, 353 nm, 354 nm, 355 nm, 356 nm, 357 nm, 358 nm, 359 nm, and 360 nm.
A coating solution was prepared by mixing silicone resin (Dow Chemical, RSN-0217), absorbent, and solvent (cyclohexanone) as resin components. The mixing ratio of the resin component, absorbent, and solvent was set to be 69.3:0.99:29.7 in weight ratio (resin:absorbent:solvent).
The coating solution was coated on a transparent substrate (a glass substrate manufactured by SCHOTT) and maintained at 140° C. for about 2 hours to form an absorption membrane with a thickness of about 6 μm.
Tables 2 and 3 below summarize the transmittance of the absorption membrane before and after reliability evaluation in the ultraviolet and near-infrared regions. The reliability evaluation is an evaluation of maintaining the absorption membrane at 85° C. and under 85% relative humidity condition for 120 hours. In Table 2, B refers to the result before performing the reliability evaluation and A refers to the result after performing the reliability evaluation. Additionally, in Table 2, λmax means the transmittance at the absorption maximum.
In Tables 2 and 3, Δ is the rate of change (%) of each characteristic before and after the reliability evaluation, calculated as 100×[…]/B, where […], B is the value indicated by B in Table 2. In Table 2, Tmax refers to the highest transmittance within the corresponding wavelength region, Tave refers to the average transmittance within the corresponding wavelength region, and Tmin refers to the minimum transmittance within the corresponding wavelength region.

[5] = Absorption spectra of absorption membrane before and after high temperature/high humidity evaluation (Test Example 2); conditions: 85% relative humidity, 120 hours
Source text: FIGS. 4 to 6 are the absorption spectra of the absorption membranes prepared in Test Example 1 using the absorbents of Embodiments 1 to 3, respectively. FIGS. 7 to 9 are the absorption spectrum of the absorption membrane prepared in Test Example using the absorbents of Comparative Examples 1 to 3, respectively. In the FIGS., the spectra indicated before reliability is the result immediately after preparing the absorption membrane, and the spectra indicated after reliability is the result after high temperature/high humidity evaluation was performed on the absorption membrane. The high temperature/high humidity evaluation is an evaluation where the absorption membrane is maintained at a temperature of 85° C. under a relative humidity of 85% for 120 hours. In Tables 4 and 5, Af is the transmittance at the absorption maximum wavelength of the absorption membrane maintained at 85° C. under 85% relative humidity for 120 hours and λf is the absorption maximum wavelength for after case. Ai is the transmittance at the absorption maximum wavelength of the absorption membrane before being maintained at 85° C. under 85% relative humidity for 120 hours and λi is the absorption maximum wavelength for before case. In Tables 4 and 5, ΔA is a value calculated as 100×(Af−Ai)/Ai, and Δλ is a value calculated as 100×(λf−λi)λi.

[6] = change before/after 85° C., 85% RH, 120 hours
[7] = silicone resin membrane about 6 μm, before reliability evaluation
[8] = silicone resin membrane, after 85° C., 85% RH, 120 hours
[9] = absorption membrane after 85° C.
[10] = absorption membrane before 85° C.

Maximum Absorption Wavelength [1]: 815 nm | Solubility [3]: A (When solubility is 1 mass % or more) | 425~465 nm Tave, Δ [4, 6]: −0.2% | 425~465 nm Tmin, Δ [4, 6]: 0% | 466~480 nm Tave, Δ [4, 6]: −0.9% | 466~480 nm Tmin, Δ [4, 6]: −0.6% | 480~560 nm Tave, Δ [4, 6]: −1.3% | λmax Tmax (transmittance at the absorption maximum), Δ [4, 6]: 11.4% | 425~465 nm Tave, B [4, 7]: 87.3% | 425~465 nm Tmin, B [4, 7]: 86.5% | 466~480 nm Tave, B [4, 7]: 88.9% | 466~480 nm Tmin, B [4, 7]: 88% | 480~560 nm Tave, B [4, 7]: 90.4% | 425~465 nm Tave, A [4, 8]: 87% | 425~465 nm Tmin, A [4, 8]: 86.6% | 466~480 nm Tave, A [4, 8]: 88% | 466~480 nm Tmin, A [4, 8]: 87.5% | 480~560 nm Tave, A [4, 8]: 89.2% | ΔA = 100×(Af−Ai)/Ai ([5]; 85° C.): 52.6% | Δλ = 100×(λf−λi)λi ([5]; 85° C.): −12% | Af, transmittance at the absorption maximum wavelength [5, 9]: 33.0% | λf, absorption maximum wavelength [5, 9]: 818 nm | Ai, transmittance at the absorption maximum wavelength [5, 10]: 21.6% | λi, absorption maximum wavelength [5, 10]: 819 nm
SMILES: CCCCN1/C(=C\C=C2/CCC(/C=C/C3=[N+](CCCC)c4ccccc4C3(C)C)=C2Cl)C(C)(C)c2ccccc21 [Comparative Example 3]
Td 5% [2]: 186 °C
